Experimental data as given in US9029356B2, “Substituted indazole derivatives active as kinase inhibitors” (Nerviano Medical Services S.R.L., priority 2007, dated 2015).

Legend:
[1] = molecular target: IGF-1R (Homo sapiens (Human), UniProt P08069); assay: Biochemical assay for inhibitors of IGF-1R kinase activity; conditions: 6 nM enzyme, 6 microM ATP, 10 microM peptide substrate
Experimental: Biochemical Assay for Inhibitors of IGF-1 R Kinase Activity The inhibitory activity of putative kinase inhibitors and the potency of selected compounds were determined using a trans-phosphorylation assay. A specific substrate was incubated with the kinase in appropriate buffer conditions in the presence of ATP traced with ^33P-γ-ATP (gamma phosphate-labeled, RedivueTM Code Number AH9968, 1000-3000 Ci/mmole, Amersham Biosciences Piscataway, N.J., USA), optimal cofactors and test compound. At the end of the phosphorylation reaction, more than 98% cold and radioactive ATP were captured by an excess of Dowex ion exchange resin. The resin was allowed to settle to the bottom of reaction wells by gravity. Supernatant, containing substrate peptide, was subsequently withdrawn and transferred into a counting plate, and radioactivity (corresponding to phosphate incorporated into peptide) was evaluated by β-counting. […] Prior to starting the kinase inhibition assay, IGF-1R was pre-phosphorylated in order to linearize reaction kinetics. […] The peptide was obtained in batches of >95% peptide purity from American Peptide Company, Inc. (Sunnyvale, Calif., USA). […] Compounds showing desired inhibition were further analysed in order to study the potency of the inhibitor through IC50 calculation. […]

[2] = molecular target: ALK (Homo sapiens (Human), UniProt Q9UM73); assay: Biochemical assay for inhibitors of ALK kinase activity; conditions: 20 nM enzyme, 8 microM ATP, 2 microM MBP
ALK, sequence (Q9UM73 1060-1620): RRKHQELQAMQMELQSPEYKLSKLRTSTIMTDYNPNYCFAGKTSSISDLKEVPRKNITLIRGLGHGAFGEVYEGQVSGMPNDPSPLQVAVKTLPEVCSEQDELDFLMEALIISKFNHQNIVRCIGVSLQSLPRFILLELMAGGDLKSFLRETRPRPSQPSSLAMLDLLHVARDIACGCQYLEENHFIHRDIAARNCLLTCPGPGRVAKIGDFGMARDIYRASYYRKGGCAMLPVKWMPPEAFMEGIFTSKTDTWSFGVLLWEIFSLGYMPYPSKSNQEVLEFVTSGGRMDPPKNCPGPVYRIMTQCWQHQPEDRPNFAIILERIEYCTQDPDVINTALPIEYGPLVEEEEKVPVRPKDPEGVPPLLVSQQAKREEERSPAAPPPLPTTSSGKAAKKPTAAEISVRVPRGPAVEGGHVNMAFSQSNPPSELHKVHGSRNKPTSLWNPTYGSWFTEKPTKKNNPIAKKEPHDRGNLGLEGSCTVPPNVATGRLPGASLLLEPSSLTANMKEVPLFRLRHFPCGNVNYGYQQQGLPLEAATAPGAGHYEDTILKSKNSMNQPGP
Excerpt: Preparation of ALK Cytoplasmic Domain for Use in Biochemical Assay
For cloning purposes, the oligonucleotides included attB sites in order to obtain an attB-flanked PCR product suitable for cloning using the Gateway technology (Invitrogen). Furthermore, for purification purposes, forward primer included a PreScission cleavage site (Amersham Biosciences). The resulting PCR product was cloned in the baculovirus expression vector pVL1393 (Invitrogen) Gateway-modified. For expression and purification purpose, a GST tag was added N-terminal to the ALK cytoplasmic domain. Cloning was performed according to the protocols described in the Gateway manual (Invitrogen).
Affinity purified GST-ALK was loaded on a Heparin Sepharose™ FF (Amersham Biosciences) column and eluted with 50 mM NaCl, 25 mM TRIS pH 7.5, 2 mM DTT, 20% glycerol.
Biochemical Assay for Inhibitors of ALK Kinase Activity

IGF-1R, sequence (P08069 960-1367): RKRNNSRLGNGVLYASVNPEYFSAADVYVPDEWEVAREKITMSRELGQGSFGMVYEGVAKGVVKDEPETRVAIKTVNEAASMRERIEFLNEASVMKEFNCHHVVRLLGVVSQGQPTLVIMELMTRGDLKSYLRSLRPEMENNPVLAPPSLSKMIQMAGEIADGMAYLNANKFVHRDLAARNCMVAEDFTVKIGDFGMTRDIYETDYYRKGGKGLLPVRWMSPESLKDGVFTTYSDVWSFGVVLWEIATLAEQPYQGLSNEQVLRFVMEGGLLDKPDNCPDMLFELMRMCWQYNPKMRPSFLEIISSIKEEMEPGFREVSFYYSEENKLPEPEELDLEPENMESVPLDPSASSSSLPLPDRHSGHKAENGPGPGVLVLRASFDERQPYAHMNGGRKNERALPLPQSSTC

IC50 [1] [µM] | IC50 [2] [µM] | SMILES
6.07 | 1.77 | CN1CCN(c2ccc(C(=O)Nc3n[nH]c4ccc(Cc5cc(F)cc(F)c5)cc34)c(NC3CCCCC3)c2)CC1 [Cpd 18, 2-Cyclohexylamino-N-[5-(3,5-difluoro-benzyl)-1H-indazol-3-yl]-4-(4-methyl-piperazin-1-yl)-benzamide]
 | 0.207 | CN1CCN(c2ccc(C(=O)Nc3n[nH]c4ccc(Cc5cc(F)cc(F)c5)cc34)cc2)CC1 [Cpd 4, N-[5-(3,5-Difluoro-benzyl)-1H-indazol-3-yl]-4-(4-methyl-piperazin-1-yl)-benzamide]
 | 0.411 | COCCNc1cc(N2CCN(C)CC2)ccc1C(=O)Nc1n[nH]c2ccc(Cc3cc(F)cc(F)c3)cc12 [Cpd 26, N-[5-(3,5-Difluoro-benzyl)-1H-indazol-3-yl]-2-(2-methoxy-ethylamino)-4-(4-methyl-piperazin-1-yl)-benzamide]
